Among the data in US8658791B2, “2-substituted-6-amino-5-alkyl, alkenyl or alkynyl-4-pyrimidinecarboxylic acids and 6-substituted-4-amino-3-alkyl, alkenyl or alkynyl picolinic acids and their use as herbicides” (Dow AgroSciences, LLC, priority 2007, dated 2014) are pest or weed control and plant injury values, retold here.

Common to all, as to type: in vivo
The test system of assay [1] is lambsquarter (Chenopodium album). Description: General postemergence herbicidal activity, CHEAL. The settings on record: Chenopodium album, post-emergence, 336 h, postemergence spray, visual score after 14 days, 0 = no injury, 100 = complete kill, read-out: Post-emergent Weed Control CHEAL; for pest or weed control at 280 g/ha: 280 g ai/ha; for pest or weed control at 140 g/ha: 140 g ai/ha. As to the method:
(§1) Seeds or nutlets of the desired test plant species were planted in Sun Gro MetroMix® 306 planting mixture, which typically has a pH of 6.0 to 6.8 and an organic matter content of about 30 percent, in plastic pots with a surface area of 103 square centimeters. When required to ensure good germination and healthy plants, a fungicide treatment and/or other chemical or physical treatment was applied. The plants were grown for 7-21 days in a greenhouse with an approximate 15 hour photoperiod which was maintained at about 23-29° C. during the day and 22-28° C. during the night. Nutrients and water were added on a regular basis and supplemental lighting was provided with overhead metal halide 1000-Watt lamps as necessary. The plants were employed for testing when they reached the first or second true leaf stage.
(§2) A weighed amount, determined by the highest rate to be tested, of each test compound was placed in a 25 mL glass vial and was dissolved in 4 mL of a 97:3 v/v (volume/volume) mixture of acetone and dimethyl sulfoxide (DMSO) to obtain concentrated stock solutions. […] The concentrated stock solutions obtained were diluted with 20 mL of an aqueous mixture containing acetone, water, isopropyl alcohol, DMSO, Atplus 411F crop oil concentrate, and Triton® X-155 surfactant in a 48.5:39:10:1.5:1.0:0.02 v/v ratio to obtain spray solutions containing the highest application rates. Additional application rates were obtained by serial dilution of 12 mL of the high rate solution into a solution containing 2 mL of 97:3 v/v (volume/volume) mixture of acetone and dimethyl sulfoxide (DMSO) and 10 mL of an aqueous mixture containing acetone, water, isopropyl alcohol, DMSO, Atplus 411F crop oil concentrate, and Triton X-155 surfactant in a 48.5:39:10:1.5:1.0:0.02 v/v ratio to obtain 1/2X, 1/4X, 1/8X and 1/16X rates of the high rate. Compound requirements are based upon a 12 mL application volume at a rate of 187 L/ha. Formulated compounds were applied to the plant material with an overhead Mandel track sprayer equipped with a 8002E nozzles calibrated to deliver 187 L/ha over an application area of 0.503 square meters at a spray height of 18 inches (43 cm) above the average plant canopy height. Control plants were sprayed in the same manner with the solvent blank.
(§3) The treated plants and control plants were placed in a greenhouse as described above and watered by sub-irrigation to prevent wash-off of the test compounds. After 14 days, the condition of the test plants as compared with that of the untreated plants was determined visually and scored on a scale of 0 to 100 percent where 0 corresponds to no injury and 100 corresponds to complete kill.

Assay [2] has as its system velvetleaf (Abutilon theophrasti). The assay can be described thus: General postemergence herbicidal activity, ABUTH. The settings on record: Abutilon theophrasti, post-emergence, 336 h, postemergence spray, visual score after 14 days, 0 = no injury, 100 = complete kill, read-out: Post-emergent Weed Control ABUTH; for pest or weed control at 280 g/ha: 280 g ai/ha; for pest or weed control at 140 g/ha: 140 g ai/ha. As to the method:
as §1, §2, §3

The test system of assay [3] is wild poinsettia (Euphorbia heterophylla). Description: General postemergence herbicidal activity, EPHHL. The following applies: Euphorbia heterophylla, post-emergence, 336 h, postemergence spray, visual score after 14 days, 0 = no injury, 100 = complete kill, read-out: Post-emergent Weed Control EPHHL; for pest or weed control at 280 g/ha: 280 g ai/ha; for pest or weed control at 140 g/ha: 140 g ai/ha. As to the method:
as §1, §2, §3

Assay [4] has as its system barnyardgrass (Echinochloa crus-galli). The assay can be described thus: General postemergence herbicidal activity, ECHCG. The settings on record: Echinochloa crus-galli, post-emergence, 336 h, postemergence spray, visual score after 14 days, 0 = no injury, 100 = complete kill, read-out: Post-emergent Weed Control ECHCG; for pest or weed control at 280 g/ha: 280 g ai/ha; for pest or weed control at 140 g/ha: 140 g ai/ha. As to the method:
as §1, §2, §3

Assay [5] deals with rice (Oryza sativa). Description: General postemergence herbicidal activity, ORYSA. The following applies: Oryza sativa, post-emergence, 336 h, postemergence spray, visual score after 14 days, 0 = no injury, 100 = complete kill, read-out: Post-emergent Weed Control ORYSA; for plant injury at 280 g/ha: 280 g ai/ha; for plant injury at 140 g/ha: 140 g ai/ha. As to the method:
as §1, §2, §3

Consider `COC(=O)c1nc(-c2ccc(Cl)c(OC)c2F)nc(N)c1C(C)=O` [Compound 32, 5-Acetyl-6-amino-2-(4-chloro-2-fluoro-3-methoxyphenyl)-pyrimidine-4-carboxylic acid methyl ester], for which the pest or weed control at 280 g/ha was 70% in assay [1], 70% in assay [2], 100% in assay [3] and 0% in assay [4]. Further, the plant injury at 280 g/ha in assay [5] stood at 0%.
Take `COC(=O)c1nc(-c2ccc(Cl)c(OC)c2F)nc(N)c1C=O` [Compound 33, 6-Amino-2-(4-chloro-2-fluoro-3-methoxyphenyl)-5-formyl-pyrimidine-4-carboxylic acid methyl ester]: the pest or weed control at 229 g/ha is 50% in assay [1] (229 g ai/ha), 80% in assay [2] (229 g ai/ha), 100% in assay [3] (229 g ai/ha) and 0% in assay [4] (229 g ai/ha). Besides, the plant injury at 229 g/ha in assay [5] (229 g ai/ha) was determined as 0%.
As for `COC(=O)c1nc(-c2ccc(Cl)c(OC)c2F)cc(N)c1C=O` [Compound 34, 4-Amino-6-(4-chloro-2-fluoro-3-methoxyphenyl)-3-formylpyridine-2-carboxylic acid methyl ester], the pest or weed control at 280 g/ha came to 90% in assay [1], 100% in assay [2], 95% in assay [3] and 95% in assay [4]. Further, the plant injury at 280 g/ha in assay [5] was 0%.
Regarding `COC(=O)c1nc(-c2ccc(Cl)c(OC)c2F)nc(N)c1C(F)F` [Compound 35, 6-Amino-2-(4-chloro-2-fluoro-3-methoxy-phenyl)-5-difluoromethylpyrimidine-4-carboxylic acid methyl ester], the pest or weed control at 280 g/ha in assay [1] was determined as 85%; in assay [2], 75%; in assay [3], 90%; in assay [4] it was 0%. Besides, the plant injury at 280 g/ha in assay [5] was 0%.
In the case of `COC(=O)c1nc(-c2ccc(Cl)c(OC)c2F)cc(N)c1C(F)F` [Compound 36, 4-Amino-6-(4-chloro-2-fluoro-3-methoxyphenyl)-3-difluoromethylpyridine-2-carboxylic acid methyl ester], the pest or weed control at 280 g/ha in assay [1] was 95%; in assay [2] it was 100%; in assay [3], 95%; in assay [4], 95%. In addition, the plant injury at 280 g/ha in assay [5] is 0%.
`COC(=O)c1nc(-c2ccc(Cl)c(OC)c2F)nc(N)c1/C=C/Br` [Compound 37, 6-Amino-5-((E)-2-bromovinyl)-2-(4-chloro-2-fluoro-3-methoxyphenyl)pyrimidine-4-carboxylic acid methyl ester]: the pest or weed control at 280 g/ha turned out to be 90% in assay [1], 80% in assay [2], 90% in assay [3] and 0% in assay [4]. The plant injury at 280 g/ha in assay [5] was determined as 10%.
For `COC(=O)c1nc(-c2ccc(Cl)c(OC)c2F)nc(N)c1/C=C/SC` [Compound 38, 6-Amino-2-(4-chloro-2-fluoro-3-methoxyphenyl)-5-((E)-2-methylsulfanylvinyl)pyrimidine-4-carboxylic acid methyl ester], the pest or weed control at 280 g/ha was 100% in assay [1], 90% in assay [2], 100% in assay [3] and 60% in assay [4]. The plant injury at 280 g/ha in assay [5] turned out to be 0%.
Consider `COC(=O)c1nc(-c2ccc(Cl)c(OC)c2F)nc(N)c1C(C)F` (centres unmarked) [Compound 39, 6-Amino-2-(4-chloro-2-fluoro-3-methoxyphenyl)-5-(1-fluoroethyl)pyrimidine-4-carboxylic acid methyl ester], for which the pest or weed control at 140 g/ha in assay [1] amounted to 60%; in assay [2], 80%; in assay [3], 85%; in assay [4], 30%. Further, the plant injury at 140 g/ha in assay [5] is 0%.
For `C=Cc1c(N)nc(-c2ccc(Cl)c(OC(F)F)c2F)nc1C(=O)O` [Compound 50, 6-Amino-2-(4-chloro-3-difluoromethoxy-2-fluorophenyl)-5-vinylpyrimidine-4-carboxylic acid], the pest or weed control at 280 g/ha is 100% in assay [1], 95% in assay [2], 100% in assay [3] and 100% in assay [4]. Further, in assay [5], the plant injury at 280 g/ha was 45%.
With `C=Cc1c(N)nc(-c2ccc(Cl)c(N(C)C)c2F)nc1C(=O)O` [Compound 51, 6-Amino-2-(4-chloro-3-dimethylamino-2-fluorophenyl)-5-vinylpyrimidine-4-carboxylic acid], the pest or weed control at 140 g/ha in assay [1] was 100%; in assay [2] it was 100%; in assay [3], 90%; in assay [4], 95%. The plant injury at 140 g/ha in assay [5] was determined as 60%.
As for `C=C(F)c1c(N)nc(-c2ccc(Cl)c(OC)c2F)nc1C(=O)O` [Compound 52, 6-Amino-2-(4-chloro-2-fluoro-3-methoxyphenyl)-5-(1-fluorovinyl)pyrimidine-4-carboxylic acid], the pest or weed control at 140 g/ha in assay [1] turned out to be 95%; in assay [2], 95%; in assay [3] it was 100%; in assay [4], 90%. For the same compound, the plant injury at 140 g/ha in assay [5] turned out to be 65%.
Regarding `CCc1c(N)nc(-c2ccc(Cl)c(OC)c2F)nc1C(=O)O` [Compound 54, 6-Amino-2-(4-chloro-2-fluoro-3-methoxyphenyl)-5-ethylpyrimidine-4-carboxylic acid], the pest or weed control at 280 g/ha was 100% in assay [1], 90% in assay [2], 100% in assay [3] and 90% in assay [4]. In assay [5], the plant injury at 280 g/ha was determined as 0%.
With `C#Cc1c(N)nc(-c2ccc(Cl)c(OC)c2F)nc1C(=O)O` [Compound 56, 6-Amino-2-(4-chloro-2-fluoro-3-methoxyphenyl)-5-ethynylpyrimidine-4-carboxylic acid], the pest or weed control at 140 g/ha in assay [1] worked out at 95%; in assay [2], 80%; in assay [3] it was 90%; in assay [4] it was 75%. The plant injury at 140 g/ha in assay [5] was determined as 0%.
